Experimental data as given in paper PMC4585333, “Novel Regulator of Acylated Ghrelin, CF801, Reduces Weight Gain, Rebound Feeding after a Fast, and Adiposity in Mice” (Frontiers in Endocrinology, 2015).
Entries after “also recorded” stand apart in the source; their conditions may differ.

Experiments:
[1] = EchoMRI carcass body composition; type: in vivo, male C57BL/6J mice
Experimental: A second cohort of mice (n = 30) was acclimated to the laboratory conditions for 1 week prior to the onset of the experiment. Mice were housed individually and their body weight and food intake was recorded daily for a baseline period of 10 days. Given that ghrelin augments the intake of preferred diets ([28]), all mice received ad libitum access to a high-fat diet (60% of calories coming from fat), in addition to regular chow, to determine if CF801 altered dietary preference. Both chow and high-fat diet pellets were provided daily to mice ad libitum in pre-weighed amounts. Mice were then assigned to four different groups: non-injected control (NIC; n = 7), vehicle (0.9% saline) (VEH; n = 7), low-dose CF801 (11 μmol⋅kg^−1 – LD; n = 8) and high-dose CF801 (22 μmol⋅kg^−1 – HD; n = 8). Each day at 09:00 hours, mice were weighed and their food intake (both chow and high-fat diet) was recorded. After this, mice received an intraperitoneal injection of either CF801 or saline (except for the non-injected controls). Following the 13-day treatment period, half the animals in each group were sacrificed, while the remaining mice were allowed to recover from treatment. […] At this point, the remaining mice were sacrificed. Carcasses from all animals were frozen and stored at −80°C until they were scanned for body composition analyses. Immediately prior to analysis, all carcasses were thawed to room temperature and weighed in order to obtain measures relative to total carcass mass. EchoMRI carcass analyses were performed at Health Canada, Nutrition Research Division facilities using the EchoMRI-1100 (System ID EF-020) scanner. Each carcass was analyzed separately and measurements of total fat mass, total lean mass, and total water weight were obtained for each mouse.
Given these changes in metabolic efficiency as well as the decrease in RER observed in the calorimetry experiment, we hypothesized that CF801 treatment would result in less accumulation of fat. To determine if this was the case, we conducted EchoMRI analyses on every animal post-mortem to identify differences in body composition as a function between groups. […] Furthermore, there was a significant treatment effect on the fat mass:total mass ratio following the recovery period [F(1,15) = 9.245, p < 0.05; partial eta^2 = 0.716].

[2] = molecular target: T1, human GOAT (hGOAT) (Homo sapiens, UniProt Q96T53); assay: Fluorescence-based GOAT activity assay, human GOAT; type: biochemical; conditions: concentrations up to 10 μM; Sf9 membranes, 1.5 μM GSSFLCAcDan, 500 μM octanoyl-CoA, 30 min pre-incubation, 1 h room temperature, pH 7.0, HPLC fluorescence, triplicate; F(3,8) = 1.251, p > 0.05
T1 construct: made in house; host or cells: Sf9 insect cells (membrane fraction)
T1 sequence (Q96T53 1-435): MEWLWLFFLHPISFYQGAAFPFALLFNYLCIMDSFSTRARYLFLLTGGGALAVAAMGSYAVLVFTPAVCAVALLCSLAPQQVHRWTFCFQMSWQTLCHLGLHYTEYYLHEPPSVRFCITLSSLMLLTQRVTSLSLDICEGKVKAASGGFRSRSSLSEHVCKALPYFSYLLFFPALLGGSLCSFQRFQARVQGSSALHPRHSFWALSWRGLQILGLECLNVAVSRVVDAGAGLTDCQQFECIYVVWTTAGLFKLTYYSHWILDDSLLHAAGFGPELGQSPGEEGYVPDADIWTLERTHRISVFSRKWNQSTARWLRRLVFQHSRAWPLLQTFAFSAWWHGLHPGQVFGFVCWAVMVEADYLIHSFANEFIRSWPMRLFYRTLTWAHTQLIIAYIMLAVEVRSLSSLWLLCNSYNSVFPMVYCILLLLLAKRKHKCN
From the text: The effects of CF801 on GOAT activity were examined using a previously validated fluorescence-based assay, and in comparison with octanoyl-(Dap3)-ghrelin (1–5)–NH2, a well characterized GOAT inhibitor ([56], [63]). In this assay, membrane fractions from Sf9 insect cells were transfected to express either human (hGOAT) or mouse GOAT (mGOAT). Membranes fractions were thawed on ice and passed through an 18-gage needle 10 times enriched using a previously described method ([63]). […] Assays were analyzed by reverse phase HPLC with fluorescence detection. […] The trials were run in triplicate, with the % activity calculated as the integrated fluorescence intensity of the octanoylated product in the CF801 or octanoyl-(Dap3)-ghrelin (1–5)–NH2 run normalized by the same quantity for the vehicle-only reaction. […]
Figure 3 Percent activity of human GOAT (A) and mouse GOAT (B) (obtained from membrane fractions from Sf9 cells expressing hGOAT and mGOAT, resepectively) when exposed to CF801 and octanoyl-(Dap3)-ghrelin (1–5)–NH2 using a fluorescence-based microsomal assay. GSSFLCAcDan was used as an acylation target with fluorescence measured by reverse phase HPLC with fluorescence detection. […] All values are expressed as mean ± SEM. ***p < 0.001 compared to vehicle control.

## GSAFLSPEHQRK KRRQRRR-NH2 [CF801]
[1]; 11 μmol⋅kg^−1 i.p., 2 weeks after last treatment, vs VEH and NIC, p < 0.05
  fat mass, low dose, after recovery: lower fat mass than mice in the VEH and NIC
[1]; 11 μmol⋅kg^−1 i.p., following recovery period, p < 0.05
  fat mass:lean mass ratio, low dose vs NIC: significantly lower fat mass:lean mass ratio
[1]; 11 μmol⋅kg^−1 i.p., following recovery period, p = 0.058
  fat mass:lean mass ratio, low dose vs VEH: tended to show a reduction in fat mass:lean mass ratio
[1]; 11 μmol⋅kg^−1 i.p., following recovery period, p's < 0.05, overall F(1,15) = 9.245, partial eta^2 = 0.716
  fat mass:total mass ratio, low dose vs NIC and VEH: significantly lower fat mass:total mass ratios
[1]; 11 μmol⋅kg^−1 i.p., vs VEH, end of treatment, p > 0.05
  fat mass, low dose, after treatment period: lower fat mass compared to VEH-treated animals, but this was not statistically significant
[1]; 22 μmol⋅kg^−1 i.p., 2 weeks after treatment terminated, F(1,15) = 15.18, p < 0.05, partial eta^2 = 0.805
  total fat mass, high dose, after recovery: this decrease was more evident
[1]; 22 μmol⋅kg^−1 i.p., following recovery period, p < 0.05, overall F(1,15) = 7.735, partial eta^2 = 0.678
  fat mass:lean mass ratio, high dose vs NIC and VEH: significantly lower fat mass:lean mass ratio
[1]; 22 μmol⋅kg^−1 i.p., following recovery period, p's < 0.05, overall F(1,15) = 9.245, partial eta^2 = 0.716
  fat mass:total mass ratio, high dose vs NIC and VEH: significantly lower fat mass:total mass ratios
[1]; 22 μmol⋅kg^−1 i.p., vs VEH, right after 13-day treatment, F(1,14) = 3.54, p > 0.05 as printed, partial eta^2 = 0.515
  total fat mass, high dose, after treatment period: significantly lower
[1]; 22 vs 11 μmol⋅kg^−1, following recovery period, p > 0.05
  fat mass:lean mass ratio, high dose vs low dose: no different than animals treated with LD CF801
[1]; between groups, p > 0.05
  lean body mass: no differences between the groups
  water mass: no differences between the groups
[2]
  hGOAT activity with CF801: no inhibition was seen; also recorded: no effect
